Values joined by “and” are separate entries in the source; they are usually repeats but may differ in a detail not shown here. Equal values may be shown once.
Experiments:
[1] = system: CD69 expression on B cells; assay: Ex vivo anti-IgD-dextran induced CD69 expression on B cells in whole blood; format: cell-based, human
Protocol: To assess the functional effect of BMS-986142 on a relevant pathway in the targeted cells, whole blood was stimulated ex vivo with anti-IgD-dextran to activate signal transduction through the B cell antigen receptor. B cells, identified by CD20, were assessed for expression of CD69. Blood was incubated without addition of anti-IgD-dextran to serve as a negative control. Samples were incubated for 24 h at 37 °C, and then fixed and stained for CD20 and CD69. CD69 expression was quantified by standardized flow cytometry. Fluorescence intensity was measured and reported in units of mean equivalents of soluble fluorescein (MESF). Background CD69 level was measured from samples without the addition of anti-IgD-dextran and was subtracted from the stimulated value. The anti-IgD specific CD69 induction was used for analysis. The result for each sample was expressed as a percentage inhibition relative to the pre-dose sample.
CD69 inhibition by BMS-986142 was tabulated by treatment and time, and corresponding changes from baseline were calculated and summarized. The inhibition of B cell receptor-mediated CD69 expression by BMS-986142 was descriptively summarized by treatment and study days. An exposure-response analysis was applied to characterize the relationship between BMS-986142 concentration and CD69 inhibition using a Bayesian Emax model. […]

[2] = Stability of BMS-986142 in human EDTA plasma and processed samples (bioanalytical validation); format: physicochemical
Protocol: Method validation was carried out according to the Bristol-Myers Squibb Standard Operating Procedures (SOPs) for chromatographic method validation which conforms to the U.S. FDA’s Good Laboratory Practice (GLP) regulations (21 CFR part 58). The validation experiments included but were not limited to the determination of the lower limit of quantification (LLOQ), specificity, accuracy and precision, recovery, and analyte stability under the expected conditions of sample transfer, sample storage, and sample preparation. The LLOQ of the assay was determined to be 1 ng/mL using six different lots of plasma. No interference from the endogenous components and the internal standard was observed.
The accuracy and precision data for BMS-986142, based on the maximum value from all six QC levels, obtained using one-way ANOVA in Watson are listed in Table 1. The recovery of the analyte from human plasma during extraction was determined at 3 ng/mL and 800 ng/mL for BMS-986142, at 3 ng/mL, 30 ng/mL and 750 ng/mL for methotrexate and 7-hydroxymethotrexate, by comparing the response ratios in human plasma samples spiked with the analyte prior to extraction with those spiked post-extraction. The recovery for BMS-986142 is 89-90%. The recoveries for methotrexate and 7-hydroxymethotrexate are 88-94% and 83-88%, respectively. The room temperature, freeze-thaw, and frozen storage stability of BMS-986142 were evaluated in triplicate or quadruplicate using Low QC, High QC, and Dilution QC. The reinjection integrity was assessed by re-injecting an entire run. The deviations of the mean predicted concentrations of the test samples from the nominal concentrations were used as an indicator of the stability of the analyte.

[3] = 19.6 hours at RT in Plasma, Dilution QC 10000.00
[4] = 19.6 hours at RT in Plasma, High QC 800.00
[5] = 19.6 hours at RT in Plasma, Low QC 3.00
[6] = 96 h Processed sample stability, Dilution QC 10000.00
[7] = 96 h Processed sample stability, High QC 800.00
[8] = 96 h Processed sample stability, Low QC 3.00
[9] = 7 days at 5 °C Re-injection integrity, Dilution QC 10000.00
[10] = 7 days at 5 °C Re-injection integrity, High QC 800.00
[11] = 7 days at 5 °C Re-injection integrity, Low QC 3.00
[12] = 327 day at -20 °C in Plasma, Dilution QC 10000.00
[13] = 327 day at -20 °C in Plasma, High QC 800.00
[14] = 327 day at -20 °C in Plasma, Low QC 3.00
[15] = After 4 Freeze-Thaw Cycle in Plasma, Dilution QC 10000.00
[16] = After 4 Freeze-Thaw Cycle in Plasma, High QC 800.00
[17] = After 4 Freeze-Thaw Cycle in Plasma, Low QC 3.00

Cc1c(-c2c(F)cc(C(N)=O)c3[nH]c4c(c23)CC[C@H](C(C)(C)O)C4)cccc1-n1c(=O)c2cccc(F)c2n(C)c1=O [BMS-986142, 6-fluoro-5-(R)-(3-(S)-(8-fluoro-1-methyl-2,4-dioxo-1,2-dihydroquinazolin-3(4H)-yl)-2-methylphenyl)-2-(S)-(2-hydroxypropan-2-yl)-2,3,4,9-tetrahydro-1H-carbazole-8-carboxamide]
IC50 ([1]; Homo sapiens, B-cell, plasma concentration, Bayesian Emax model, SAD and MAD data, read-out: IC50, concentration to inhibit 50% of CD69 expression): 145 nM and 0.083 µg/mL
Mean maximal inhibition of CD69 expression ([1]; dose levels greater than 100 mg): ~100%
Stability, %Dev [2, 3]: 3.1%
Stability, Mean Conc. [2, 3]: 10314.35 ng/mL
Stability, %Dev [2, 4]: 2.0%
Stability, Mean Conc. [2, 4]: 816.24 ng/mL
Stability, %Dev [2, 5]: 8.3%
Stability, Mean Conc. [2, 5]: 3.25 ng/mL
Stability, %Dev [2, 6]: -3.3%
Stability, Mean Conc. [2, 6]: 9666.77 ng/mL
Stability, %Dev [2, 7]: 1.7%
Stability, Mean Conc. [2, 7]: 813.52 ng/mL
Stability, %Dev [2, 8]: 4.0%
Stability, Mean Conc. [2, 8]: 3.12 ng/mL
Stability, %Dev [2, 9]: 9.9%
Stability, Mean Conc. [2, 9]: 10986.50 ng/mL
Stability, %Dev [2, 10]: 4.7%
Stability, Mean Conc. [2, 10]: 837.90 ng/mL
Stability, %Dev [2, 11]: 2.7%
Stability, Mean Conc. [2, 11]: 3.08 ng/mL
Stability, %Dev [2, 12]: -4.2%
Stability, Mean Conc. [2, 12]: 9578.40 ng/mL
Stability, %Dev [2, 13]: 1.9%
Stability, Mean Conc. [2, 13]: 815.36 ng/mL
Stability, %Dev [2, 14]: 5.0%
Stability, Mean Conc. [2, 14]: 3.15 ng/mL
Stability, %Dev [2, 15]: -7.6%
Stability, Mean Conc. [2, 15]: 9241.55 ng/mL
Stability, %Dev [2, 16]: -5.9%
Stability, Mean Conc. [2, 16]: 752.66 ng/mL
Stability, %Dev [2, 17]: -6.3%
Stability, Mean Conc. [2, 17]: 2.81 ng/mL
